pIC50: −log10 of the molar value. Structures can show the parent of a compound that is named as a salt.
Legend:
[1] = in vivo screen APCC: blood cholesterol in rats fed overnight a high fat, high cholesterol (PCC) diet; conditions: male Sprague-Dawley rats, dosed at 4 PM, PCC diet with 0.5% cholic acid overnight, blood sampled 8 AM, dose not given
From the text: In one in vivo screen designated APCC, male Sprague-Dawley rats (200 to 225 g) were randomly divided into treatment groups and dosed at 4 PM with either vehicle (CMC/Tween) or suspensions of compounds in vehicle. The normal chow diet was then replaced with a high fat, high cholesterol diet (designated PCC) containing 0.5% cholic acid. The rats consumed this diet ad libitum during the night and were sacrificed at 8 AM to obtain blood samples for cholesterol analysis using standard procedures. Statistical differences between mean cholesterol values for the same vehicle were determined using analysis of variance followed by Fisher's least significant test.

[2] = biological target: acyl-CoA:cholesterol acyltransferase (ACAT); assay: in vitro ACAT inhibition (LAI): radiolabeled cholesterol oleate formed from radiolabeled oleic acid in rat liver microsomes; assay type: biochemical; conditions: concentration required to inhibit enzyme activity by 50%
Method: The ability of representative compounds of the present invention to inhibit ACAT was measured using an in vitro test more fully described in Field FJ, Salone RG, Biochemica et Biophysica, 1982;712:557-570. The test assesses the ability of a test compound to inhibit the acylation of cholesterol by oleic acid by measuring the amount of radiolabeled cholesterol oleate formed from radiolabeled oleic acid in a tissue preparation containing rat liver microsomes.

Row | SMILES | pIC50 [2] | pIC50 ([2]; sodium salt) | % Change (mg/dl) in cholesterol [1] | % Change (mg/dl) in cholesterol ([1]; sodium salt) [%]
1 | CC(C)c1cccc(C(C)C)c1OS(=O)(=O)NC(=O)[C@@H]1C[C@H]1c1ccccc1 (relative stereo) [Example 15, sulfamic acid trans-[(2-phenylcyclopropyl)carbonyl]-2,6-bis(1-methylethyl)phenyl ester] |  |  | -14% | 
2 | CC(C)c1cc(C(C)C)c(OS(=O)(=O)NC(=O)Cc2c(C(C)C)cccc2C(C)C)c(C(C)C)c1 [Example 3, sulfamic acid[[2,6-bis(1-methylethyl)phenyl]acetyl]-2,4,6-tris(1-methylethyl)phenylester] | 4.96 |  | -79% | 
3 | CC(C)c1cccc(C(C)C)c1OS(=O)(=O)NC(=O)CC12CC3CC(CC(C3)C1)C2 [Example 4, sulfamic acid[adamantaneacetyl]-2,6-bis[1-methylethyl]phenyl ester] | 4.89 |  | -47% | 
4 | CC(C)c1cc(C(C)C)c(CC(=O)NS(=O)(=O)Oc2c(C(C)C)cccc2C(C)C)c(C(C)C)c1 [Example 6, sulfamic acid[[2,4,6-tris(1-methylethyl)phenyl]acetyl]-2,6-bis(1-methylethyl)phenylester sodium salt] |  |  |  | -75
5 | CC(C)c1cccc(C(C)C)c1OS(=O)(=O)NC(=O)Cc1ccccc1 [Example 7, sulfamic acid(phenylacetyl)-2,6-bis(1-methylethyl)phenyl ester] | 4.33 |  | -17% | 
6 | CC(C)c1cc(C(C)C)c(CC(=O)NS(=O)(=O)Oc2c(C(C)C)cc(C(C)C)cc2C(C)C)c(C(C)C)c1 [Example 8, sulfamic acid[[2,4,6-tris(1-methylethyl)phenyl]acetyl]-2,4,6-tris(1-methylethyl)phenyl ester] | 4.68 |  | -66% | 
7 | CCCCCCCCCC(=O)NS(=O)(=O)Oc1c(C(C)C)cccc1C(C)C [Example 10, sulfamic acid (decanoyl)-2,6-bis(1-methylethyl)phenyl ester] |  |  | -26% | 
8 | CCCCCCCCCCCC(=O)NS(=O)(=O)Oc1c(C(C)C)cccc1C(C)C [Example 11, sulfamic acid(dodecanoyl)-2,6-bis(1-methylethyl)phenyl ester] | < 5.00 |  | -8% | 
9 | CC(C)c1cccc(C(C)C)c1OS(=O)(=O)NC(=O)C12CC3CC(CC(C3)C1)C2 [Example 12] |  |  | -5% | 
10 | CC(C)c1cccc(C(C)C)c1OS(=O)(=O)NC(=O)CC(c1ccccc1)c1ccccc1 [Example 13, sulfamic acid(1-oxo-3,3-diphenylpropyl)-2,6-bis(1-methylethyl)phenyl ester] | 4.60 |  | -31% | 
11 | COc1ccccc1CC(=O)NS(=O)(=O)Oc1c(C(C)C)cccc1C(C)C [Example 21, sulfamic acid[2-methoxyphenyl(acetyl)]-2,6-bis(1-methylethyl)phenyl ester] | 4.26 |  | -16% | 
12 | CC(C)c1cccc(C(C)C)c1OS(=O)(=O)NC(=O)C(=O)c1ccccc1 [Example 22, sulfamic acid(oxophenylacetyl)-2,6-bis(1-methylethyl)phenyl ester] | 4.30 |  | -23% | 
13 | CC(C)c1cccc(C(C)C)c1OS(=O)(=O)NC(=O)Cc1ccccc1C(F)(F)F [Example 23, sulfamic acid[2-trifluoromethylphenyl(acetyl)]-2,6-bis(1-methylethyl)phenyl ester] | 4.92 |  | -19% | 
14 | CC(C)c1cccc(C(C)C)c1OS(=O)(=O)NC(=O)C(C)c1ccccc1 (centres unmarked) [Example 24, sulfamic acid(1-oxo-2-phenylpropyl)-2,6-bis(1-methylethyl)phenyl ester] | 4.59 |  | -24% | 
15 | CC(C)c1cccc(C(C)C)c1OS(=O)(=O)NC(=O)C(c1ccccc1)C1CCCC1 (centres unmarked) [Example 25, sulfamic acid(cyclopentylphenylacetyl)-2,6-bis(1-methylethyl)phenyl ester] | 5.14 |  | -71% | 
16 | CC(C)c1cccc(C(C)C)c1OS(=O)(=O)NC(=O)CC1CCCCC1 [Example 26, sulfamic acid(cyclohexylacetyl)-2,6-bis(1-methylethyl)phenyl ester] | 4.55 |  | -26% | 
17 | CC(C)c1cccc(C(C)C)c1OS(=O)(=O)NC(=O)C(c1ccccc1)c1ccccc1 [Example 27, sulfamic acid(diphenylacetyl)-2,6-bis(1-methylethyl)phenyl ester] | 4.92 |  | -72% | 
18 | CC(C)c1cccc(C(C)C)c1OS(=O)(=O)NC(=O)C(c1ccccc1)(c1ccccc1)c1ccccc1 [Example 28, sulfamic acid(triphenylacetyl)-2,6-bis(1-methylethyl)phenyl ester] | 5.22 |  | -30% | 

The next lines start with results.

Row | pIC50 [2] | pIC50 ([2]; sodium salt) | SMILES | % Change (mg/dl) in cholesterol [1] | % Change (mg/dl) in cholesterol ([1]; sodium salt) [%]
19 | 5.01 |  | CC(C)c1cccc(C(C)C)c1CC(=O)NS(=O)(=O)Oc1c(C(C)C)cccc1C(C)C [Example 1, sulfamic acid[[2,6-bis(1-methylethyl)phenyl]acetyl]-2,6-bis(1-methylethyl)phenyl ester] | -63% | 
20 |  | 4.92 | CC(C)c1cccc(C(C)C)c1CC(=O)NS(=O)(=O)Oc1c(C(C)C)cccc1C(C)C [Example 2, sulfamic acid[[2,6-bis(1-methylethyl)phenyl]acetyl]-2,6-bis(1-methylethyl)phenyl ester sodium salt] |  | -62
21 | 4.92 |  | CC(C)c1cc(C(C)C)c(CC(=O)NS(=O)(=O)Oc2c(C(C)C)cccc2C(C)C)c(C(C)C)c1 [Example 5, Sulfamic acid[[2,4,6-tris(1-methylethyl)phenyl]acetyl]-2,6-bis(1-methylethyl)phenylester] | -73% | 
22 | 4.48 |  | CC(C)c1cccc(C(C)C)c1OS(=O)(=O)NC(=O)Cc1c(Cl)cccc1Cl [Example 14, sulfamic acid[2,6-dichlorophenyl(acetyl)]-2,6-bis(1-methylethyl)phenyl ester] | -12% | 
23 | 4.44 |  | COc1ccc(OC)c(CC(=O)NS(=O)(=O)Oc2c(C(C)C)cccc2C(C)C)c1 [Example 16, sulfamic acid[2,5-dimethoxyphenyl(acetyl)]-2,6-bis(1-methylethyl)phenyl ester] | +10% | 
24 | < 4.30 |  | COc1cc(OC)c(CC(=O)NS(=O)(=O)Oc2c(C(C)C)cccc2C(C)C)c(OC)c1 [Example 17, sulfamic acid[2,4,6-trimethoxyphenyl(acetyl)]-2,6-bis(1-methylethyl)phenyl ester] | -40% | 
25 | 4.66 |  | Cc1cc(C)c(CC(=O)NS(=O)(=O)Oc2c(C(C)C)cccc2C(C)C)c(C)c1 [Example 18, sulfamic acid[2,4,6-trimethylphenyl(acetyl)]-2,6-bis(1-methylethyl)phenyl ester] | -47% | 
26 | < 4.30 |  | CC(C)c1cccc(C(C)C)c1OS(=O)(=O)NC(=O)Cc1cccs1 [Example 19, sulfamic acid[2-thiophenyl(acetyl)]-2,6-bis(1-methylethyl)phenyl ester] | -20% | 
27 | < 4.30 |  | CC(C)c1cccc(C(C)C)c1OS(=O)(=O)NC(=O)Cc1ccsc1 [Example 20, sulfamic acid[3-thiophenyl(acetyl)]-2,6-bis(1-methylethyl)phenyl ester] | -19% | 

From patent US5491172A, “N-acyl sulfamic acid esters (or thioesters), N-acyl sulfonamides, and N-sulfonyl carbamic acid esters (or thioesters) as hypercholesterolemic agents” (Warner-Lambert Company, priority 1994, dated 1996)
